The values that follow come from patent US11767298B2, “Substituted benzimidazoles as inhibitors of transforming growth factor-β kinase” (Duke University, priority 2016, dated 2023).

For orientation: IC50 means the concentration that inhibits the measured activity by half. A high value points to weaker potency. The term inhibition denotes how much of the control response was suppressed. A low value points to a weak effect.

Entries after “also recorded” stand apart in the source; their conditions may differ.

Assay [1] addresses GFP-PfPK9 (Plasmodium falciparum, UniProt Q8IEG4). The experiment in a line: ATP-competitive binding assay (ATP-sepharose pull-down, FLECS). The conditions noted are these: GFP-PfPK9; Kd calculated from EC50 of ATP pull-down dose-response; read-out: Kd, app. The procedure:
Primary small-molecule screen. A small-molecule screen was performed similar to a previously reported fluorescence linked enzyme chemoproteomic strategy (FLECS). Briefly, HEK293-GFP-PfPK9 cells were grown in 182-cm^2 tissue culture flasks (Genesee Scientific) and harvested at ˜80% cell confluency. Before assays the culture medium was aspirated, cells were rinsed with ice cold PBS and then they were removed with a cell scraper. Cells were pelleted by centrifugation (2,000 rpm, 4° C., 2 min) and immediately lysed for assays. The pellet was suspended in buffer A (25 mM HEPES, pH 7.4, 150 mM NaCl, 60 mM MgCl2, 1 mM DTT) with 1 μM microcystin, 0.1% Triton X-100 plus a Roche Complete protease inhibitor tablet and then placed on ice for 30 min to facilitate lysis. The supernatant was collected after centrifugation (4,300 rpm, 4° C., 5 min) and used in subsequent screening and titrations experiments. For screening, the supernatant was added to ATP-sepharose beads (1:1) and incubated with agitation at 4° C. for at least 1 hr to allow binding. Following this incubation, the mixture was centrifuged, the ATP resin was washed with 9 column volumes of buffer A with 1 M NaCl and then 9 column volumes of buffer A. The ATP-sepharose medium was reconstituted as a 1:1 slurry with buffer A and then added to 96-well filter plates (50 μL/well) (Corning #3505) using a multichannel pipette (Rainin). The filter plate was on top of black 96-well catch plates (Corning #3915). An ATP dilution series (1-200 mM) was added to each plate as a positive control and DMSO was the negative control. Compounds and controls were all added to 50 μL per well in buffer A. For screening, compounds were tested in singlicate at 500 μM. The final DMSO concentration in every well was 5%. The fluorescence intensity in each well was measured on an EnVision system. Data analyses of screens were carried out in EXCEL (Microsoft, Corp.) and actives were identified as 2×background signal.
All screening positives that were verified with Western blot analysis were purchased from Enamine or Vitas-M laboratory. The purity of compounds 1-5 (shown below) was verified by high-resolution MS (Agilent). Compounds were tested in 8-point dose-response (0-500 μM) experiments in duplicate, essential as described above. The fluorescence intensity in each well was measured using an EnVision system. Dose-response analysis was performed with GraphPad Prism to acquire EC50 values. Determined EC50 values were used to calculate the observed PfPK9 Kd and reported values are the average of 2-3 independent experiments.
Stable cell line generation. The P. falciparum PK9 gene (PlasmoDB accession #PF3D7_1315100) was cloned into the pEGFP-C1 mammalian expression vector (Clontech) in frame with a […] GFP tag. For screening, HEK293 cells were transfected with the resulting PfPK9-pEGFP-C1 vector to generate HEK293-GFP-PfPK9 expressing cells using X-tremeGENE HP transfection reagent (Roche) per the manufacturer instructions. Briefly, the culture medium was replaced at 48 hours post-transfection with medium supplemented with 1 mg/mL G418 sulfate (Life Technologies) to select for stably transfected cells. Following stable cell selection, fluorescence activated cell sorting (FACS) was used to enrich for GFP-PfPK9 expressing cells. Subsequently, FACS sorted HEK293-GFP-PfPK9 cells were cultured with medium supplemented with 0.5 mg/mL G418 sulfate for all following experiments. Protein expression was verified by Western blot analysis probing for anti-GFP and by fluorescence intensity using an EnVision (PerkinElmer) system.
All 14 positive molecules were also tested for their binding affinity to PfPK9 using an optimized ATP-competitive binding assay. EC50 values ranging from low μM to low mM were observed and these EC50 values were used to derive dissociation constants as described previously. […]

Assay [2] deals with TAK1 (Homo sapiens, UniProt O43318). The experiment in a line: Kinase profiling (Dundee), TAK1. The assay is classed as biochemical. As to the method: (§1) Kinase selectivity profiling. The selectivity profile of HS-206 to inhibit mammalian kinases was tested against a panel of 140 kinases at a single concentration of 10 μM. Tests were performed using a radiolabeld (^33P-ATP) filter-binding assay at the International Centre for Kinase Profiling at the University of Dundee, UK (http://www.kinase-screen.mrc.ac.uk/).
(§2) This panel contains members of all major kinase families, including tyrosine kinases (TK), tyrosine kinase-like (TKL), sterile serine/threonine (STE), and CDK/MAPK/GSK/CLK (CMGC). […] For these kinases, IC50 values were determined (Table 1).

For assay [3], the target named is CLK2 (Homo sapiens, UniProt P49760). The experiment in a line: Kinase profiling (Dundee), CLK2. Type of assay: biochemical. The following applies: 10 μM. The procedure: as §1, §2
The target of assay [4] is IRAK4 (Homo sapiens, UniProt Q9NWZ3). Kind of assay: Kinase profiling (Dundee), IRAK4. Type of assay: biochemical. As to the method:
as §1, §2

The subject of assay [5] is TAK1 downstream signaling (IKK, p38) in MDA-MB-231 cells. The experiment in a line: TNFα dependent signaling in MDA-MB-231 cells. The assay is classed as cell-based. The conditions noted are these: 10 μM, 2 h pretreatment, TNFα stimulation. The procedure: In order to investigate the effects of HS-206 on cellular signaling, MDA-MB-231 and Hela cells were pretreated with 10 μM HS-206 for 2 h and stimulated with TNFα (FIG. 8).

IRAK4, sequence (Q9NWZ3 whole entry): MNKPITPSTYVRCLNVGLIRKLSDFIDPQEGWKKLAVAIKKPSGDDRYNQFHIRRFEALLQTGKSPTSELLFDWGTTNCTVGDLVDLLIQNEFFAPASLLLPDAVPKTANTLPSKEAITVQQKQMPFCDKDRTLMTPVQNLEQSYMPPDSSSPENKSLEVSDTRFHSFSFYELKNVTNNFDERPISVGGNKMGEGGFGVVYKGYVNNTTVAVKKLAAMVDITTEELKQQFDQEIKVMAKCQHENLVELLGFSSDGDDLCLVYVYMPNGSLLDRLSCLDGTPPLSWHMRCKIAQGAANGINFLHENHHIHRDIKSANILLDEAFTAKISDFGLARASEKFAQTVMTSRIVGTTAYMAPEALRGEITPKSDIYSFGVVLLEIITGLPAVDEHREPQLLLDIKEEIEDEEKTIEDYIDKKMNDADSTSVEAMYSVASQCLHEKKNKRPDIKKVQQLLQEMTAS
TAK1, sequence (O43318 with tags, fused parts or gaps limits assumed): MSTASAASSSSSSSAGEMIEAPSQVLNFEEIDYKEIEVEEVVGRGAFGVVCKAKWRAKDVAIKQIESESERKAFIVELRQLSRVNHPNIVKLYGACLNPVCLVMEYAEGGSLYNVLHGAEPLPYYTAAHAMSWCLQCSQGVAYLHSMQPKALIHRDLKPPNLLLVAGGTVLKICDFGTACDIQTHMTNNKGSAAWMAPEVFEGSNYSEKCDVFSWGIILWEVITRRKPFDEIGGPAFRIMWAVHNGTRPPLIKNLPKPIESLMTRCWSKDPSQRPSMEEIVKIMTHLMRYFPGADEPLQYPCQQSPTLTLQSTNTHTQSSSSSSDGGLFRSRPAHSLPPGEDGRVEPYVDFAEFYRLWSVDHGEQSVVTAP
CLK2, sequence (P49760 whole entry): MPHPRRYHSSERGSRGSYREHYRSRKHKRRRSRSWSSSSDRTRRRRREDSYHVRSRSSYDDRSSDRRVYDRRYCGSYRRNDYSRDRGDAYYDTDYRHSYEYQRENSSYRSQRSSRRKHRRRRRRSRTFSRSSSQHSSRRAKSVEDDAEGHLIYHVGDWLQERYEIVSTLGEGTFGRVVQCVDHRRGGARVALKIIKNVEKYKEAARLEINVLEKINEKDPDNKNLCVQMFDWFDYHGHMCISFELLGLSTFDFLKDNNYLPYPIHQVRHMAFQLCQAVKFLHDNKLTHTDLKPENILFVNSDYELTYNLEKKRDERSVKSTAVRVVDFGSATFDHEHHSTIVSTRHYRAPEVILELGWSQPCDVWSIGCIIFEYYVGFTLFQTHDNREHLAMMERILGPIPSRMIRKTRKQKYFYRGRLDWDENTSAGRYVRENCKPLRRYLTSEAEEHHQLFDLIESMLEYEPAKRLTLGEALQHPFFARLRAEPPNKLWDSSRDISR
GFP-PfPK9, sequence (Q8IEG4 entry or part of it): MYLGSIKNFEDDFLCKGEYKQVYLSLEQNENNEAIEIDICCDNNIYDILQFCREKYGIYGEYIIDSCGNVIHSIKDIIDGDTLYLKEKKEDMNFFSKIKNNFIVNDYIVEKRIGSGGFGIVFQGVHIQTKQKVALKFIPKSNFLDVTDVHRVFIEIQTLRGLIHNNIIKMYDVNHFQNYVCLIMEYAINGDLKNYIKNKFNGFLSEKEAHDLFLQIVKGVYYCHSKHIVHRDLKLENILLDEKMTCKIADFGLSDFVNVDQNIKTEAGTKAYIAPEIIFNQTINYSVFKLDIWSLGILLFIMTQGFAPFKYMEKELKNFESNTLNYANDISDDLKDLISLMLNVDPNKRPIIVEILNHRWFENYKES

As for `CCCn1c(NC(=O)c2cccc(C(N)=O)c2)nc2ccccc21` [HS-206 (1), (E)-N-(1-Propyl-1,3-dihydro-2H-benzo[d]imidazol-2-ylidene)isophthalamide], the Kd in assay [1] was 200 nM. The IC50 in assay [2] amounted to 9.5 ± 2 nM; in assay [4], 120 ± 30 nM. Further, the inhibition at 10 µM in assay [2] (10 μM), in assay [3] and in assay [4] (10 μM) was more than 90% throughout. Besides, the “TNFα dependent signaling (activation of IKK and p38)” value in assay [5] is “inhibited activation of IKK and p38; also recorded: inhibits TNFα dependent signaling”.
